For assay [1], the target named is T1, SOS1 catalytic domain (residues 564-1049) (Homo sapiens, UniProt Q07889).
T1 sequence (Q07889 564-1049): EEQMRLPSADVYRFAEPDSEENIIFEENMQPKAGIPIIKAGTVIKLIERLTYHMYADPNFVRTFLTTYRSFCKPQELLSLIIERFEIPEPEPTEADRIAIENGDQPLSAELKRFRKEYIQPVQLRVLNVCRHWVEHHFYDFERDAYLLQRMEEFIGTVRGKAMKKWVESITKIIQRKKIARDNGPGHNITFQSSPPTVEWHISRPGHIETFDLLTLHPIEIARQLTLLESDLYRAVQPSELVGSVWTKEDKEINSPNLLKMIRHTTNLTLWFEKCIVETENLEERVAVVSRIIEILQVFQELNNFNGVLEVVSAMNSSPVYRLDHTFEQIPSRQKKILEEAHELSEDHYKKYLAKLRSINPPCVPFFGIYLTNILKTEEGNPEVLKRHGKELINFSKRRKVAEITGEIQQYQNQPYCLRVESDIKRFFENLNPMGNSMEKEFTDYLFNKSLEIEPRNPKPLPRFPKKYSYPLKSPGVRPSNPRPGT
Put plainly: Potency Assay: binding affinity to SOS1 using Surface Plasmon Resonance (SPR). Set-up: SOS1 catalytic domain (residues 564-1049) immobilized on a sensor chip. The note with it: immobilized SOS1 catalytic domain (residues 564-1049), read-out: SOS1 SPR Equilibrium Kd. On the procedure:
Data was reported as equilibrium dissociation constant (Kd) values.
Using a GE Biacore 8K SPR instrument, avi-tagged SOS1 catalytic domain protein was immobilized to a level of approximately 6000 response units (RU) on a streptavidin-coated SPR sensor chip in assay buffer containing 0.01 M HEPES, 0.15 M NaCl and 0.05% v/v Surfactant P20. […] For each test compound, a separate 0 μM sample was generated for use during subsequent double reference subtraction. Serially for each test compound, individual dilution samples were flowed over the immobilized SOS1 protein at a flow rate of 50 μL/minute to monitor the association with SOS1. Dissociation of bound test compound from the SOS1 protein was immediately monitored by flowing assay buffer over the sensor surface and monitoring the decrease in binding signal back to the baseline level seen in the absence of compound. This was repeated for all compound dilutions in each series. The binding level response for each test compound concentration was noted immediately prior to the end of the association phase, and a secondary plot generated showing binding response level versus test compound concentration generated for each compound dilution series.

The target of assay [2] is T1, SOS1 catalytic domain (residues 564-1049). Put plainly: Mode of Action Assay: inhibition of SOS1 nucleotide exchange activity (SOS1 TR-FRET IC50 Assay).
Assay [3] deals with PC-9 cells (EGFR Ex19Del). The assay can be described thus: Potency Assay: pERK (SOS1 pERK IC50 Assay, AlphaLISA SureFire Ultra p-ERK1/2). It is filed as cell-based. The note with it: Homo sapiens; PC-9 cells (EGFR Ex19Del), 1 hour incubation, AlphaLISA p-ERK1/2; read-out: SOS1 pERK IC50. The procedure, abridged:
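Cellular pERK1/2 by AlphaLISA SureFire Ultra after 1 h compound exposure (37° C., highest concentration 10 μM, 3-fold steps, duplicates) of EGFR Ex19Del PC-9 cells seeded the day before. A 4-parameter fit of signal versus log concentration gives IC50.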

SMILES strings stand for the structures.

What is called Kd is the constant that tells how readily two partners part at equilibrium. What is called IC50 is the concentration at which inhibition is half-maximal. `C[C@@H](Nc1nc(Cl)nc2c1C[C@H](N1CCOCC1)CC2)c1cc(N)cc(C(F)(F)F)c1` (single isomer, unassigned) [Example 169]: the Kd in assay [1] is below 400 nM. For the same molecule, the IC50 in assay [2] and in assay [3] was below 1000 nM in each case.

As for `C[C@@H](Nc1nc(Cl)nc2c1C[C@@H](N1CCOCC1)CC2)c1cc(N)cc(C(F)(F)F)c1` (single isomer, unassigned) [Example 170], in assay [1], the Kd was below 400 nM. For the same molecule, the IC50 in assay [2] and in assay [3] was below 1000 nM throughout.

On to `C[C@@H](Nc1nc(Cl)nc2c1CN(C1CCOCC1)CC2)c1cc(N)cc(C(F)(F)F)c1` [Example 22, N-[(1R)-1-[3-amino-5-(trifluoromethyl)phenyl]ethyl]-2-chloro-6-tetrahydropyran-4-yl-7,8-dihydro-5H-pyrido[4,3-d]pyrimidin-4-amine], for which the Kd in assay [1] is below 400 nM. For the same molecule, the IC50 in assay [3] is below 1000 nM.

As to `C[C@@H](Nc1nc(Cl)nc2c1CN(S(=O)(=O)N1CCOCC1)C2)c1cc(N)cc(C(F)(F)F)c1` [Example 24, N-[(1R)-1-[3-amino-5-(trifluoromethyl)phenyl]ethyl]-2-chloro-6-morpholinosulfonyl-5,7-dihydropyrrolo[3,4-d]pyrimidin-4-amine], in assay [1], the dissociation constant Kd is below 400 nM. The IC50 in assay [2] and in assay [3] was below 1000 nM throughout.

In the case of `C[C@@H](Nc1nc(Cl)nc2c1CN(S(=O)(=O)N1CCOCC1)CC2)c1cc(N)cc(C(F)(F)F)c1` [Example 29, N-[(1R)-1-[3-amino-5-(trifluoromethyl)phenyl]ethyl]-2-chloro-6-morpholinosulfonyl-7,8-dihydro-5H-pyrido[4,3-d]pyrimidin-4-amine], the Kd in assay [1] is below 400 nM. Besides, the IC50 in assay [2] and in assay [3] was below 1000 nM in each case.

Consider `C[C@@H](Nc1nc(Cl)nc2c1CN(C1CCOCC1)C2=O)c1cc(N)cc(C(F)(F)F)c1` [Example 30, 4-[[(1R)-1-[3-amino-5-(trifluoromethyl)phenyl]ethyl]amino]-2-chloro-6-tetrahydropyran-4-yl-5H-pyrrolo[3,4-d]pyrimidin-7-one], for which the Kd in assay [1] was below 400 nM. Moreover, the IC50 in assay [2] was below 1000 nM; in assay [3] it was above 1000 nM.

In the case of `CNCc1ccccc1-c1cnc(C(C)Nc2nc(Cl)nc3c2CN(C(=O)N2CCOCC2)C3)s1` (stereo not shown) [Example 31], in assay [1], the dissociation constant Kd was below 400 nM. For the same molecule, the IC50 in assay [2] and in assay [3] was above 1000 nM each time.

In the case of `CNCc1ccccc1-c1cccc(C(C)Nc2nc(Cl)nc3c2CN(C(=O)N2CCOCC2)C3)c1` (stereo not shown) [Example 32, [2-chloro-4-[1-[3-[2-(methylaminomethyl)phenyl]phenyl]ethylamino]-5,7-dihydropyrrolo[3,4-d]pyrimidin-6-yl]-morpholino-methanone], the Kd in assay [1] is below 400 nM. In addition, the IC50 in assay [3] is below 1000 nM.

`C[C@@H](Nc1nnc(Cl)c2c1CN(C(=O)N1CCOCC1)C2)c1cc(N)cc(C(F)(F)F)c1` [Example 35, [1-[[(1R)-1-[3-amino-5-(trifluoromethyl)phenyl]ethyl]amino]-4-chloro-5,7-dihydropyrrolo[3,4-d]pyridazin-6-yl]-morpholino-methanone]: the Kd in assay [1] is above 400 nM. Moreover, in assay [3], the IC50 was above 1000 nM.

In the case of `Cc1nc2c(c(N[C@H](C)c3cc(N)cc(C(F)(F)F)c3)n1)CN(S(=O)(=O)c1ccc(N)nc1)C2` [Example 36, (R)—N-(1-(3-amino-5-(trifluoromethyl)phenyl)ethyl)-6-((6-aminopyridin-3-yl)sulfonyl)-2-methyl-6,7-dihydro-5H-pyrrolo[3,4-d]pyrimidin-4-amine], the Kd in assay [1] was above 400 nM. The IC50 in assay [2] and in assay [3] was above 1000 nM throughout.

On to `CNCc1ccccc1-c1ccc(C(C)Nc2nc(Cl)nc3c2CN(C(=O)N2CCOCC2)C3)s1` (stereo not shown) [Example 39, [2-chloro-4-[1-[5-[2-(methylaminomethyl)phenyl]-2-thienyl]ethylamino]-5,7-dihydropyrrolo[3,4-d]pyrimidin-6-yl]-morpholino-methanone], for which the Kd in assay [1] was below 400 nM. The IC50 in assay [3] is below 1000 nM.

Take `CCc1cc(N)cc(C(C)Nc2nc(Cl)nc3c2CN(C(=O)N2CCOCC2)C3)c1` (stereo not shown) [Example 41, [4-[1-(3-amino-5-ethyl-phenyl)ethylamino]-2-chloro-5,7-dihydropyrrolo[3,4-d]pyrimidin-6-yl]-morpholino-methanone]: the Kd in assay [1] was below 400 nM. The IC50 in assay [3] was below 1000 nM.

For the molecule `C[C@@H](Nc1nc(Cl)nc2c1CN(c1ncccc1N1CCOCC1)CC2)c1cc(N)cc(C(F)(F)F)c1` [Example 186, (R)—N-(1-(3-amino-5-(trifluoromethyl)phenyl)ethyl)-2-chloro-6-(3-morpholinopyridin-2-yl)-5,6,7,8-tetrahydropyrido[4,3-d]pyrimidin-4-amine], in assay [1], the Kd was above 400 nM. Also, the IC50 in assay [3] was above 1000 nM.

On to `C[C@@H](Nc1nc(Cl)nc2c1CN(S(=O)(=O)C1CCNCC1)C2)c1cc(N)cc(C(F)(F)F)c1` [Example 187], for which the Kd in assay [1] is below 400 nM. In addition, the IC50 in assay [3] was above 1000 nM.

With `COc1cncc(C(=O)N2CCc3nc(Cl)nc(N[C@H](C)c4cc(N)cc(C(F)(F)F)c4)c3C2)n1` [Example 237], in assay [1], the Kd is above 400 nM. The IC50 in assay [3] was above 1000 nM.

Turning to `Cc1nc2c(c(N[C@H](C)c3cc(N)cc(C(F)(F)F)c3)n1)CN(C(=O)N1CCN(C)CC1)C2` [Example 351], the Kd in assay [1] was below 400 nM. For the same molecule, the IC50 in assay [3] is below 1000 nM.

Take `Cc1nc2c(c(N[C@H](C)c3cc(N)cc(C(F)(F)F)c3)n1)CN(C(=O)N1CC(O)C1)C2` [Example 352]: the Kd in assay [1] is below 400 nM. Besides, the IC50 in assay [3] is above 1000 nM.

For `C[C@@H](Nc1nc(Cl)nc2c1CN(C(=O)N1CCN(C)c3ncncc31)C2)c1cccc(C(F)F)c1F` [Example 428], in assay [1], the Kd was below 400 nM. The IC50 in assay [2] is below 1000 nM.

Turning to `COC1CN([C@@H]2CCc3nc(Cl)nc(N[C@H](C)c4cc(N)cc(C(F)(F)F)c4)c3C2)C1` [Example 431], in assay [1], the Kd was below 400 nM. The molecule also yielded an IC50 in assay [2] below 1000 nM.

`COC1CN([C@H]2CCc3nc(Cl)nc(N[C@H](C)c4cc(N)cc(C(F)(F)F)c4)c3C2)C1` [Example 432]: in assay [1], the Kd was below 400 nM. Moreover, in assay [2], the IC50 is below 1000 nM.

`CC(Nc1nc(Cl)nc2c1CN(C(=O)N1CCOCC1)C2)c1cc(N)cc(C(F)(F)F)c1F` (stereo not shown) [Example 461, (4-((1-(5-amino-2-fluoro-3-(trifluoromethyl)phenyl)ethyl)amino)-2-chloro-5,7-dihydro-6H-pyrrolo[3,4-d]pyrimidin-6-yl)(morpholino)methanone]: the Kd in assay [1] is below 400 nM. The IC50 in assay [2] was below 1000 nM.

Take `COC1(C(=O)N2Cc3nc(C(F)(F)CO)nc(N[C@H](C)c4cccc(C(F)F)c4F)c3C2)CCOCC1` [Example 487, (R)-(2-(1,1-difluoro-2-hydroxyethyl)-4-((1-(3-(difluoromethyl)-2-fluorophenyl)ethyl)amino)-5,7-dihydro-6H-pyrrolo[3,4-d]pyrimidin-6-yl)(4-methoxytetrahydro-2H-pyran-4-yl)methanone]: the Kd in assay [1] was below 400 nM. Also, the IC50 in assay [2] was below 1000 nM.

On to `COC1(C(=O)N2Cc3nc(C(F)(F)CN)nc(N[C@H](C)c4cccc(C(F)F)c4F)c3C2)CCOCC1` [Example 488, 2-(2-amino-1,1-difluoroethyl)-N-[(1R)-1-[3-(difluoromethyl)-2-fluorophenyl]ethyl]-6-(4-methoxyoxane-4-carbonyl)-5H,6H,7H-pyrrolo[3,4-d]pyrimidin-4-amine], for which the Kd in assay [1] was below 400 nM. The half-inhibitory concentration (IC50) in assay [2] was below 1000 nM.

`C[C@@H](Nc1nc(CF)nc2c1CN(C(=O)N1CCOCC1)C2)c1cccc(C(F)F)c1F` [Example 540, N-[(1R)-1-[3-(difluoromethyl)-2-fluorophenyl]ethyl]-2-(fluoromethyl)-6-(morpholine-4-carbonyl)-5H,6H,7H-pyrrolo[3,4-d]pyrimidin-4-amine]: the Kd in assay [1] is below 400 nM. In assay [2], this molecule displayed an IC50 below 1000 nM.
